Reference: PMC8575619, “Cytotoxic and Antifungal Amides Derived from Ferulic Acid: Molecular Docking and Mechanism of Action” (BioMed Research International, 2021)
In brackets after ≈: the same amount, converted by molar mass. Several values for one entry are separate records, joined by “and”; a condition that tells them apart may be missing. Identical values can stand only once. Like-named read-outs stand apart in the source and are kept apart here.

Experiments:
[1] = tested on: C. albicans CBS 562; test: Sorbitol assay (cell wall mechanism), microdilution; type: cell-based, Candida albicans; conditions: for MIC: Candida albicans
Protocol: (1) Sorbitol Assay. The microdilution technique was performed in the presence of sorbitol (D-sorbitol, anhydrous) (INLAB laboratory), to determine the mode of action of the compounds on the cell wall of C. albicans CBS 562. For this test, the inoculum was prepared with sorbitol to a final concentration of 0.8 M. The plates were incubated at 35 ± 2°C, and readings were taken 24 h and 48 h after incubation. Caspofungin was used as positive control at an initial concentration of 5 mg/mL [68–70].

[2] = tested on: MRC5; test: Cytotoxicity assay, alamar blue test (healthy cell line); type: cell-based, human; conditions: value (95% confidence interval)
Protocol: (§1) HepG2 cells (human hepatocellular carcinoma), HCT116 (human colon carcinoma), HL-60 (human promyelocytic leukemia), and MRC5 (human lung fibroblast) obtained from the ATCC (Manassas, VA, USA) were used. Cells were cultured in cell culture bottles (75 cm 3, 250 mL volume), and media used were RPMI 1640 and supplemented with 10% fetal bovine serum. Cells were maintained in incubators with 5% CO2 atmosphere at 37°C. Cellular growth was monitored daily with the use of an inversion microscope. The medium was changed whenever cell growth reached the necessary confluence for nutrient renewal. For the maintenance of adhered cells, trypsin (0.25%) was used for the cells to detach from the walls of the bottles.
(§2) To assess the cytotoxicity of the substances, the alamar blue test was performed after 72 h of exposure with the test substances. Alamar blue, known as resazurin [62], is a fluorescent/colorimetric indicator with redox properties. The reduction in alamar blue reflects cell proliferation. This was initially used to indicate cell growth and/or viability in monitoring lymphocyte proliferation and currently has several applications. Initially, cells were plated in 96-well plates (100 μL/well of a solution of 0.3 × 10^6 cells/mL for cells in suspension and 0.7 × 10^5 cells/mL for adhered cells). After 24 h of incubation, the test substances dissolved in DMSO were added to each well and incubated for 72 h. Doxorubicin was used as a positive control. The negative control received the same amount of DMSO. Four hours before the end of the incubation period, 20 μL of the stock solution (0.312 mg/mL) of alamar blue (resazurin) was added to each well. Absorbances were measured at wavelengths of 570 nm (reduced) and 600 nm (oxidized) using a plate reader.

[3] = tested on: HL-60; test: Cytotoxicity assay, alamar blue test; type: cell-based, human; conditions: value (95% confidence interval); for IC50: read-out: IC50 HL60
Protocol: as §1, §2

[4] = tested on: HepG2 cells; test: Cytotoxicity assay, alamar blue test; type: cell-based, human; conditions: value (95% confidence interval)
Protocol: as §1, §2

[5] = tested on: HCT116; test: Cytotoxicity assay, alamar blue test; type: cell-based, human; conditions: value (95% confidence interval)
Protocol: as §1, §2

[6] = tested on: Candida krusei CBS 573; test: Minimum fungicide concentration (MFC); type: cell-based; conditions: ≥ 4 fungistatic or <4 fungicide
Protocol: (§3) Antifungal activity evaluations were performed using references strains of Candida spp., obtained from the Centraalbureau voor Schimmelcultures (CBS, Ultrecht, Netherlands): Candida albicans CBS 562, Candida tropicalis CBS 94, and Candida krusei CBS 573. Nystatin, Tween 80%, DMSO, caspofungin diacetate, and ergosterol were obtained from Sigma-Aldrich® (St. Louis, MO, EUA) and sorbitol (D-sorbitol anhydrous) from INLAB® (São Paulo, Brazil). All assays were performed in triplicate in three independent experiments. The culture medium used for maintenance of the microorganisms was Agar Sabouraud Dextrose (ASD). Inoculants were adjusted to a final concentration of 2.5 × 10^3 CFU/mL (Clinical and Laboratory Standards Institute, 2002). […]
(§4) The minimum fungicide concentration (MFC) of the compounds was obtained after the interpretation of the MIC. Three (3) aliquots of 30 μL of supernatant were removed from the wells (where complete inhibition of fungal growth was analyzed) and placed in Petri dishes containing 15 mL of agar Sabouraud dextrose. The plates were incubated at 35 ± 2°C for 24 h for visual counting of colony forming units. To determine whether the compounds had fungistatic (MFC/MIC ≥ 4) or fungicidal (MFC/MIC < 4) activity, the MFC/MIC ratio was calculated.

[7] = tested on: Candida tropicalis CBS 94; test: Minimum fungicide concentration (MFC); type: cell-based; conditions: ≥ 4 fungistatic or <4 fungicide
Protocol: as §3, §4

[8] = tested on: Candida albicans CBS 562; test: Minimum fungicide concentration (MFC); type: cell-based; conditions: ≥ 4 fungistatic or <4 fungicide
Protocol: as §3, §4

[9] = tested on: Candida strains (Candida albicans, C. tropicalis, and C. krusei); test: Antifungal evaluation (MIC/MFC), statements for all Candida strains; type: cell-based, Candida spp.
Protocol: The antifungal activity (Table 2) of the ten amides was assessed via the minimum inhibitory concentration (MIC) which was determined using the microdilution methods against three species of Candida strains (Candida albicans, C. tropicalis, and C. krusei).
as §3
(§5) MIC was determined by the microdilution technique, as previously described by the adapted Clinical and Laboratory Standards Institute (CLSI, 2002) method. The compounds were subjected to the microdilution technique in 96-well plates, with U bottom. The samples were dissolved with DMSO and sterile distilled water (up to 1.0 mL). Through serial dilutions, concentrations of the evaluated compounds ranging from 1000 μg/mL to 7.8 μg/mL. The culture sterility medium, the evaluated substances, and the microbial growth were carried out in parallel. The plates were closed and subjected to a temperature of 35 ± 2°C for 24 h. 1% TTC (2,3,5-triphenyl tetrazolium chloride, Sigma-Aldrich®, St. Louis, MO, EUA) was added to each well to confirm the presence of viable microorganisms. MIC was defined as the lowest concentration of the test substance that inhibits visible microbial growth.
as §4, with “units.” for “units. To determine whether the compounds had fungistatic (MFC/MIC ≥ 4) or fungicidal (MFC/MIC < 4) activity, the MFC/MIC ratio was calculated.”

[10] = tested on: C. albicans; test: Ergosterol test (plasma membrane mechanism), microdilution; type: cell-based, Candida albicans; conditions: for MIC Without ergosterol: absence of ergosterol
Protocol: (2) Ergosterol Test. The test of the compounds was performed using the microdilution technique, as previously described, in the presence of exogenous ergosterol at 400 μg/mL. Nystatin was used as positive control. The plates were incubated at 35 ± 2°C, and readings were taken at 24 and 48 h.

[11] = tested on: Candida albicans CBS 562; test: MIC by broth microdilution; type: cell-based; conditions: 24 h, N.A.: no activity
Protocol: as §3, §5

Compound | MIC/MFC reason C. krusei CBS 573 [6] | MIC/MFC reason C. tropicalis CBS 94 [7] | MIC/MFC reason C. albicans CBS 562 [8] | IC50 ([2]; 72 h) [µM] | IC50 MRC5 ([2]; 72 h) | IC50 ([3]; 72 h) [µM] | IC50 ([4]; 72 h) [µM] | IC50 HEPG2 ([4]; 72 h) | IC50 ([5]; 72 h) [µM] | IC50 HCT116 ([5]; 72 h) | IC50 HL60 ([3]; 72 h) | other results
CC[C@H](C)C[C@H](C)CCCCCCCCC(=O)N[C@H]1C[C@@H](O)[C@@H](NCCN)NC(=O)[C@@H]2[C@@H](O)CCN2C(=O)[C@H]([C@H](O)CCN)NC(=O)[C@H]([C@H](O)[C@@H](O)c2ccc(O)cc2)NC(=O)[C@@H]2C[C@@H](O)CN2C(=O)[C@H]([C@@H](C)O)NC1=O [Caspofungin, reference compound] |  |  |  |  |  |  |  |  |  |  |  | MIC ([1]; CBS562, read-out: MIC With sorbitol): 1 mg/L (≈ 0.915 µM); MIC ([1]; CBS562, read-out: MIC Without sorbitol): 0.015 mg/L (≈ 0.0137 µM)
COc1cc(/C=C/C(=O)NCC(C)C)ccc1O [Compound 2, (E)-3-(4-hydroxy-3-methoxyphenyl)-N-isobutylacrylamide] |  |  |  |  |  |  |  |  |  |  |  | IC50 ([2]; Homo sapiens, MRC5, 72 h): > 25 µg/mL and > 100 µM; melting point: 75 to 81 °C; IC50 ([3]; Homo sapiens, HL-60, 72 h): > 25 µg/mL and > 100 µM; IC50 ([4]; Homo sapiens, HepG2, 72 h): > 25 µg/mL and > 100 µM; IC50 ([5]; Homo sapiens, HCT-116, 72 h): > 25 µg/mL and > 100 µM
COc1ccc(/C=C/C(=O)N2CCCC2)cc1O [Compound 3, (E)-3-(3-hydroxy-4-methoxyphenyl)-1-(pyrrolidin-1-yl)prop-2-en-1-one] |  |  |  |  |  |  |  |  |  |  |  | IC50 ([2]; Homo sapiens, MRC5, 72 h): > 25 µg/mL and > 95.7 µM; melting point: 158 to 162 °C; IC50 ([3]; Homo sapiens, HL-60, 72 h): > 25 µg/mL and > 95.7 µM; IC50 ([4]; Homo sapiens, HepG2, 72 h): > 25 µg/mL and > 95.7 µM; IC50 ([5]; Homo sapiens, HCT-116, 72 h): > 25 µg/mL and > 95.7 µM
COc1cccc2c1C(=O)c1c(O)c3c(c(O)c1C2=O)C[C@@](O)(C(=O)CO)C[C@@H]3O[C@H]1C[C@H](N)[C@H](O)[C@H](C)O1 [DOX, Doxorubicin, reference compound] |  |  |  |  |  |  |  |  |  |  |  | IC50 ([2]; Homo sapiens, MRC5, 72 h): 1 µg/mL and 1.84 µM; IC50 ([3]; Homo sapiens, HL-60, 72 h): 0.03 µg/mL and 60 nM; IC50 ([4]; Homo sapiens, HepG2, 72 h): 0.01 µg/mL and 20 nM; IC50 ([5]; Homo sapiens, HCT-116, 72 h): 0.02 µg/mL and 40 nM
C[C@@H]1[C@H](O)[C@@H](C)/C=C/C=C/CC/C=C/C=C/C=C/C=C/C(O[C@H]2O[C@H](C)[C@@H](O)[C@H](N)[C@@H]2O)CC2O[C@](O)(CC(O)C(O)CCC(O)CC(O)CC(O)CC(=O)O[C@H]1C)CC(O)C2C(=O)O (stereo partly drawn) [Nystatin, reference compound] | 1 | 1 | 1 |  |  |  |  |  |  |  |  | MFC ([9]; stated for all Candida strains): 4.3 µM (≈ 3.98 µg/mL); MIC ([9]; stated for all Candida strains): 4.3 µM (≈ 3.98 µg/mL); MIC Without ergosterol [10]: 3.75 mg/L (≈ 4.05 µM); MIC With ergosterol ([10]; exogenous ergosterol at 400 μg/mL): 31.25 mg/L (≈ 33.7 µM)
(E)-3-(3-hydroxy-4-methoxyphenyl)-N-(4-methoxybenzyl)acrylamide [Compound 8] | 1 | 1 | 1 | 53.2 | 16.69 (13.18–21.13) μg/mL | 70.3 | 64.7 | 20.27 (15.94–25.77) μg/mL | > 79.8 | >25 µg/mL |  | MIC ([9]; stated for all Candida strains): 1590 µM
(E)-3-(3-hydroxy-4-methoxyphenyl)-N-(4-methylbenzyl)acrylamide [Compound 7] | 1 | 1 |  | > 84.1 | >25 µg/mL | 53.1 | > 84.1 | >25 µg/mL | > 84.1 | >25 µg/mL |  | MIC C. albicans CBS 562 [11]: inactive
(E)-3-(3-hydroxy-4-methoxyphenyl)-N-phenylacrylamide [Compound 5] |  |  |  | > 88.2 | >25 µg/mL | 50.4 | > 88.2 | >25 µg/mL | > 88.2 | >25 µg/mL | 14.28 (9.40–21.70) μg/mL | 
(E)-N-(3,4-dimethoxybenzyl)-3-(3-hydroxy-4-methoxyphenyl)acrylamide [Compound 10] | 1 | 1 | 1 | > 78.9 | >25 µg/mL | 36.5 | > 78.9 | >25 µg/mL | > 78.9 | >25 µg/mL | 12.51 (7.41–18.12) μg/mL | bioactivity category by MIC ([9]; Candida strains): good bioactivity (good bioactivity (MIC between 26 and 125 μg/mL)); MIC Without ergosterol [10]: 62.25 mg/L; MIC Without sorbitol ([1]; C. albicans CBS 562, absence of sorbitol): 31.25 mg/L; MIC With sorbitol ([1]; C. albicans CBS 562, sorbitol 0.8 M): >1000 mg/L
(E)-N-(4-chlorobenzyl)-3-(3-hydroxy-4-methoxyphenyl)acrylamide [Compound 9] | 1 | 1 |  | > 78.7 | >25 µg/mL | 49 | > 78.7 | >25 µg/mL | > 78.7 | >25 µg/mL | 15.58 (9.26–26.20) μg/mL | MIC C. albicans CBS 562 [11]: inactivity
(E)-N-benzyl-3-(3-hydroxy-4-methoxyphenyl)acrylamide [Compound 6] | 1 |  | 1 | 76.5 | 20.59 (16.22–26.13) μg/mL | 64.9 | 107 | 20.82 (17.45–28.23) μg/mL | 70.3 | 18.93 (13.48–26.57) μg/mL | 17.49 (14.24–421.48) μg/mL | 
(E)-N-cyclohexyl-3-(3-hydroxy-4-methoxyphenyl)acrylamide [Compound 4] |  |  |  | > 90.8 | >25 µg/mL | 68.4 | > 90.8 | >25 µg/mL | > 90.8 | >25 µg/mL | 18.84 (11.58–27.65) μg/mL | 
